Measurements taken from US4206127A, “5,6-Dihydro analogues of prostaglandin I2” (Miles Laboratories, Inc., priority 1978, dated 1980).

How the values were obtained:
[1] = test system: rat gastric secretion; assay: Effects of Prostaglandin Analogues on Gastric Secretion in the Rat (Test B); type: in vivo; settings: pylorus-ligated rats, subcutaneous 1.5 mg/kg twice (total 3.0 mg/kg), 4 hours
Procedure: B. Evaluation of the Effects of Prostaglandin Analogues on Gastric Secretion in the Rat
A procedure based on that described by Lipmann (J. Pharm. Pharmacol., 21: 335 [1968]) was used to assess the influence of test compounds on gastric secretion. Rats of one sex weighing 150 to 200 g were randomly divided into groups of six animals each and fasted for 48 hours previously to the experiments, water being available ad libitum. The animals were anesthetized with ether, the abdomen was opened through a midline incision and the pylorus was ligated. Test compounds were diluted from stock solution so as to administer a dose of 1.5 mg/kg in a volume equivalent to 1 ml/kg. Subcutaneous injections were applied immediately after surgery and again 2 hours later, so that a total dose of 3.0 mg/kg was administered. Dilutions were made with phosphate buffer (pH 7.38), as recommended by Lee et al. (Prostaglandins 3: 29 [1973]), in order to insure adequate stability of drugs at the subcutaneous depot. […]
Four hours after pyloric ligation the animals were killed with ether, the cardias ligated and stomachs removed. The volume of gastric secretion was measured and the contents centrifuged at 5000 rpm for 10 minutes. […]
Volume and total acid values of the treated group were compared with those of the controls by the "Squared" test. Antisecretory activity was scored according to the following scale: […]

[2] = test system: blood vessels; settings: cited from earlier work
[3] = test system: platelet aggregation; settings: cited from earlier work

Compound	Activity Value, Test B - inhibition of rat gastric secretion (score of % decrease in acidity) [1]	dilation of blood vessels [2]	inhibition of platelet aggregation [3]	destruction of platelet clumps ([3]; in vitro, clumps already induced to form)
9-Deoxy-9a-Homo-6, 9α-epoxy-15S-hydroxyprost-13E-en-1-oic acid [TR-4921]	2 (26-50, significant)	–	–	–
Ethyl 5, 9β-Epoxy-11α,15-dihydroxy-16,20-methanoprost-13E-en-1-oate [TR-4973]	0 (<26)	–	–	–
CCCCC[C@H](O)/C=C/[C@@H]1[C@H]2C/C(=C/CCCC(=O)O)O[C@H]2C[C@H]1O [PGI2, (5Z)-9-deoxy-6, 9α-epoxy-Δ^5-prostaglandin F1α]	–	dilates blood vessels dramatically	the most potent inhibitor of platelet clumping of all the prostaglandins discovered to date	destroys platelet clumps after they have been induced to form
